Columns and labels:
Assay in all cases: relative viability (nuclei count vs DMSO), 5 days (fraction); higher = more cells survive
[1] = compound: CC1=C(C=CC(=C1)[N+](=O)[O-])NS(=O)(=O)C2=C(C=CC(=C2)Cl)Cl [FH535] + O=C(c1cc(Cc2n[nH]c(=O)c3ccccc23)ccc1F)N1CCN(C(=O)C2CC2)CC1 [Olaparib] (partner 8 µM)
In short: (§1)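 Relative viability was taken as the ratio of nuclei in treated wells to nuclei in vehicle wells. Lung cancer cell lines in 1536-well plates received compounds by pin tool one day after seeding, either one drug alone or a fixed anchor-drug dose plus five library-drug doses (not always all listed) in √10 steps. Nuclei were counted on 4× images after 5 days of treatment, and values are medians of duplicate plates.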

[2] = compound: CC1=C(C=CC(=C1)[N+](=O)[O-])NS(=O)(=O)C2=C(C=CC(=C2)Cl)Cl [FH535] + Nc1ncn([C@H]2C[C@H](O)[C@@H](CO)O2)c(=O)n1 [Decitabine] (partner 2 µM)
In short: as §1

[3] = compound: CC1=C(C=CC(=C1)[N+](=O)[O-])NS(=O)(=O)C2=C(C=CC(=C2)Cl)Cl [FH535] + O=C(CCCCCCC(=O)Nc1ccccc1)NO [Vorinostat] (partner 1 µM)
In short: as §1

[4] = compound: CC1=C(C=CC(=C1)[N+](=O)[O-])NS(=O)(=O)C2=C(C=CC(=C2)Cl)Cl [FH535] + Cc1nc(NC(=O)N2CCC[C@H]2C(N)=O)sc1-c1ccnc(C(C)(C)C(F)(F)F)c1 [Alpelisib] (partner 2 µM)
In short: as §1

[5] = compound: CC1=C(C=CC(=C1)[N+](=O)[O-])NS(=O)(=O)C2=C(C=CC(=C2)Cl)Cl [FH535] + Nc1nc2[nH]cc(CCc3ccc(C(=O)N[C@@H](CCC(=O)O)C(=O)O)cc3)c2c(=O)[nH]1 [Pemetrexed] (partner 0.2 µM)
In short: as §1

Cell Line | relative viability ([1]; first compound 0.04 µM) | relative viability ([1]; first compound 0.1265 µM) | relative viability ([1]; first compound 0.4 µM) | relative viability ([1]; first compound 1.265 µM) | relative viability ([2]; first compound 0.04 µM) | relative viability ([2]; first compound 0.1265 µM) | relative viability ([2]; first compound 0.4 µM) | relative viability ([2]; first compound 1.265 µM) | relative viability ([3]; first compound 0.04 µM) | relative viability ([3]; first compound 0.1265 µM) | relative viability ([3]; first compound 0.4 µM) | relative viability ([3]; first compound 1.265 µM) | relative viability ([4]; first compound 0.04 µM) | relative viability ([4]; first compound 0.1265 µM) | relative viability ([4]; first compound 0.4 µM) | relative viability ([4]; first compound 1.265 µM) | relative viability ([5]; first compound 0.04 µM) | relative viability ([5]; first compound 0.1265 µM) | relative viability ([5]; first compound 0.4 µM) | relative viability ([5]; first compound 1.265 µM)
COR-L 105 | 0.693 | 0.699 | 0.747 | 0.648 | 0.634 | 0.735 | 0.64 | 0.687 | 0.793 | 0.857 | 0.848 | 0.876 | 1.09 | 1.17 | 0.789 | 0.971 | 1.16 | 1.08 | 0.943 | 0.968
PC-14 | 0.242 | 0.324 | 0.297 | 0.233 | 0.218 | 0.231 | 0.242 | 0.223 | 0.741 | 0.607 | 0.782 | 0.797 | 0.88 | 0.967 | 0.94 | 0.925 | 0.12 | 0.137 | 0.13 | 0.123
EMC-BAC-2 | 0.445 | 0.467 | 0.46 | 0.442 | 0.885 | 1 | 0.985 | 0.892 | 0.297 | 0.449 | 0.419 | 0.308 | 0.731 | 0.762 | 0.716 | 0.632 | 0.408 | 0.422 | 0.419 | 0.423
LU99A | 0.246 | 0.28 | 0.274 | 0.283 | 0.789 | 0.944 | 0.841 | 0.794 | 0.356 | 0.484 | 0.487 | 0.464 | 0.457 | 0.498 | 0.534 | 0.522 | 0.148 | 0.171 | 0.199 | 0.239
RERF-LC-KJ | 0.904 | 0.891 | 0.856 | 0.516 | 0.645 | 0.707 | 0.55 | 0.467 | 0.632 | 0.64 | 0.685 | 0.573 | 0.739 | 0.822 | 0.921 | 0.751 | 0.466 | 0.491 | 0.469 | 0.435
NCI-H647 | 0.586 | 0.528 | 0.467 | 0.509 | 0.311 | 0.362 | 0.364 | 0.334 | 0.442 | 0.63 | 0.408 | 0.462 | 1.18 | 1.41 | 1.14 | 0.935 | 0.2 | 0.219 | 0.187 | 0.152
LCLC-97TM1 | 0.407 | 0.342 | 0.314 | 0.274 | 0.247 | 0.273 | 0.247 | 0.187 | 0.203 | 0.568 | 0.706 | 0.745 |  | 0.225 | 0.224 | 0.181 | 0.155 | 0.173 | 0.156 | 0.135
NCI-H1993 | 0.941 | 1.03 | 0.983 | 0.581 | 0.563 | 1.13 | 0.357 | 0.613 | 0.822 | 0.801 | 0.606 | 0.57 | 0.629 | 0.78 | 0.662 | 0.596 | 0.539 | 0.611 | 0.523 | 0.463
HARA | 0.588 | 0.873 | 0.829 | 0.353 | 0.578 | 0.475 | 0.552 | 0.414 | 0.376 | 0.489 | 0.511 | 0.341 | 0.785 | 0.817 | 0.817 | 0.561 | 0.258 | 0.254 | 0.234 | 0.286
NCI-H520 | 0.319 | 0.277 | 0.268 | 0.314 | 0.462 | 0.488 | 0.521 | 0.355 | 0.546 | 0.723 | 0.81 | 0.714 | 0.825 | 0.931 | 0.952 | 0.799 | 0.737 | 0.818 | 0.585 | 0.659
EKVX | 0.737 | 0.906 | 0.903 | 0.762 | 0.373 | 0.413 | 0.331 | 0.27 | 0.403 | 0.819 | 0.693 | 0.222 | 0.825 | 0.976 | 0.823 | 0.75 | 0.366 | 0.47 | 0.413 | 0.379
NCI-H1755 | 0.867 | 0.857 | 0.8 | 0.869 | 0.667 | 0.725 | 0.679 | 0.699 | 0.616 | 0.807 | 0.752 | 0.707 | 0.941 | 0.897 | 0.853 | 0.867 | 0.406 | 0.42 | 0.342 | 0.413
NCI-H1395 | 0.491 | 0.46 | 0.437 | 0.414 | 0.632 | 0.685 | 0.702 | 0.653 | 0.543 | 0.679 | 0.697 | 0.532 | 0.847 | 1.09 | 1.1 | 0.84 | 0.768 | 0.854 | 0.829 | 0.773
NCI-H2087 | 0.391 | 0.553 | 0.516 | 0.378 | 0.26 | 0.225 | 0.194 | 0.18 | 0.566 | 0.782 | 0.693 | 0.551 | 1.11 | 1.04 | 0.887 | 0.613 | 0.656 | 0.694 | 0.663 | 0.624
H3255 | 0.515 | 0.527 | 0.514 | 0.381 | 0.541 | 0.625 | 0.63 | 0.456 | 0.804 | 0.753 | 0.729 | 0.654 | 0.468 | 0.805 | 0.705 | 0.633 | 0.58 | 0.564 | 0.545 | 0.577
NCI-H1944 | 0.382 | 0.453 | 0.431 | 0.308 | 0.391 | 0.489 | 0.414 | 0.441 | 0.291 | 0.575 | 0.425 | 0.509 |  | 0.858 | 0.848 | 0.837 | 0.53 | 0.621 | 0.505 | 0.515
